{
  "source": "the kinase profiling compilation of Christmann-Franck et al. (2016)",
  "assay_in_all_cases": "radiometric filter-binding kinase assay, Kinase HotSpot",
  "conditions_in_all_cases": "compound 0.5 µM; ATP 10 µM",
  "key": {"[1]": {"molecular_target": "NUAK1 (human) (UniProt O60285)"}, "[2]": {"molecular_target": "SRMS (human) (UniProt Q9H3Y6)"}, "[3]": {"molecular_target": "PRKG2 (human) (UniProt Q13237)"}, "[4]": {"molecular_target": "AKT1 (human) (UniProt P31749)"}, "[5]": {"molecular_target": "OXSR1 (human) (UniProt O95747)"}, "[6]": {"molecular_target": "PTK2 (human) (UniProt Q05397)"}, "[7]": {"molecular_target": "ULK1 (human) (UniProt O75385)"}, "[8]": {"molecular_target": "MLTK (human) (UniProt Q9NYL2)"}, "[9]": {"molecular_target": "CSK (human) (UniProt P41240)"}, "[10]": {"molecular_target": "CLK2 (human) (UniProt P49760)"}, "[11]": {"molecular_target": "NEK1 (human) (UniProt Q96PY6)"}, "[12]": {"molecular_target": "KDR (human) (UniProt P35968)"}, "[13]": {"molecular_target": "GRK4 (human) (UniProt P32298)"}, "[14]": {"molecular_target": "TBK1 (human) (UniProt Q9UHD2)"}, "[15]": {"molecular_target": "CDK3 CCNE1 (human) (UniProt Q00526+P24864)"}, "[16]": {"molecular_target": "PRKX (human) (UniProt P51817)"}, "[17]": {"molecular_target": "PRKCD (human) (UniProt Q05655)"}, "[18]": {"molecular_target": "LCK (human) (UniProt P06239)"}, "[19]": {"molecular_target": "AKT3 (human) (UniProt Q9Y243)"}, "[20]": {"molecular_target": "LYN (human) (UniProt P07948)", "sequence (P07948 whole entry, looked up)": "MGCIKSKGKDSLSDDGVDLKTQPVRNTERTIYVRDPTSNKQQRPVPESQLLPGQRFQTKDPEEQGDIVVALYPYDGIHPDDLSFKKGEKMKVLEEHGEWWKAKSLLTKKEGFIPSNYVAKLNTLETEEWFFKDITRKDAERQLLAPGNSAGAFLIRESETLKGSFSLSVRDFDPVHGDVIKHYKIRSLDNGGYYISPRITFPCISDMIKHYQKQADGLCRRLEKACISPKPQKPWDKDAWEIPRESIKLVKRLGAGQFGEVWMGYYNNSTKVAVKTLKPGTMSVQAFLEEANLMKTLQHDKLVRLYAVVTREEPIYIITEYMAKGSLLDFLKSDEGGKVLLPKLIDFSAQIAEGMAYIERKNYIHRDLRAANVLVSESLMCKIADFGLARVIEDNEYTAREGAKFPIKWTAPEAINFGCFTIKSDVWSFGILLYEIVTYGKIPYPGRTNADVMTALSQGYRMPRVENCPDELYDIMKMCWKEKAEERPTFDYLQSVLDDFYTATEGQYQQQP"}, "[21]": {"molecular_target": "PRKCG (human) (UniProt P05129)"}, "[22]": {"molecular_target": "RPS6KB1 (human) (UniProt P23443)"}, "[23]": {"molecular_target": "EPHA2 (human) (UniProt P29317)"}, "[24]": {"molecular_target": "IKBKB (human) (UniProt O14920)", "sequence (O14920 whole entry, looked up)": "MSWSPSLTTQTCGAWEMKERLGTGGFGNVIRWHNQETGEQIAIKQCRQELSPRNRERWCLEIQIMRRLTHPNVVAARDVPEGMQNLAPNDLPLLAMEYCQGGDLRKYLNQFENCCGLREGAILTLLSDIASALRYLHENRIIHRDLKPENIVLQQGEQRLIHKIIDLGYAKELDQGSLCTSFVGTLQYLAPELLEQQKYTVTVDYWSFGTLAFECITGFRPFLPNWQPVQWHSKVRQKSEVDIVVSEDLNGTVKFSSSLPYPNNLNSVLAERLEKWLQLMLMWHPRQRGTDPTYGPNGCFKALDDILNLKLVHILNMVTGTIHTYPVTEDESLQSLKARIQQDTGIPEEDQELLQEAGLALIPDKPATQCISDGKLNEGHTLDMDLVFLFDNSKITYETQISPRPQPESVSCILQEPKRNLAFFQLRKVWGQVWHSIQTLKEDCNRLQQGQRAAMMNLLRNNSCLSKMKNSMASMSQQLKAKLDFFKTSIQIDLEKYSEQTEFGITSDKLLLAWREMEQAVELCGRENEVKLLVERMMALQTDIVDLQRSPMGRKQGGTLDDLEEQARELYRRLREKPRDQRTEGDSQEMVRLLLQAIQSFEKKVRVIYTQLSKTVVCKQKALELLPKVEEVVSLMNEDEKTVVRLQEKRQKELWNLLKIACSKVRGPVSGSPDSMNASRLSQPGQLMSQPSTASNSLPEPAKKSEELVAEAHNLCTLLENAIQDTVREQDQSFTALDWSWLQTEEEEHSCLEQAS"}, "[25]": {"molecular_target": "PRKCH (human) (UniProt P24723)"}, "[26]": {"molecular_target": "NEK3 (human) (UniProt P51956)", "sequence (P51956 whole entry, looked up)": "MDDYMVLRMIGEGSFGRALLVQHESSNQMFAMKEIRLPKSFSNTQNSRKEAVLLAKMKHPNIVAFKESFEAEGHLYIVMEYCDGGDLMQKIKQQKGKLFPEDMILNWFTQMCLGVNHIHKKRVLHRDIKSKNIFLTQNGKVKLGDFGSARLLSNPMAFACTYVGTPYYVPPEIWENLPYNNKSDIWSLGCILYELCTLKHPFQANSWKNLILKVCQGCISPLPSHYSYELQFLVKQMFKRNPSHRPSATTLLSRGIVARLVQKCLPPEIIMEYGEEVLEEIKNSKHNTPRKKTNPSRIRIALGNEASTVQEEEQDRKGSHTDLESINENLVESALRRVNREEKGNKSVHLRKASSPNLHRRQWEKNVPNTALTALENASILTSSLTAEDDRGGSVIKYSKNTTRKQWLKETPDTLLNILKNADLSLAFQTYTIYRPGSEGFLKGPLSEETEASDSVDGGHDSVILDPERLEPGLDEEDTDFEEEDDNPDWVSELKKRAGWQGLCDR"}, "[27]": {"molecular_target": "GRK5 (human) (UniProt P34947)", "sequence (P34947 whole entry, looked up)": "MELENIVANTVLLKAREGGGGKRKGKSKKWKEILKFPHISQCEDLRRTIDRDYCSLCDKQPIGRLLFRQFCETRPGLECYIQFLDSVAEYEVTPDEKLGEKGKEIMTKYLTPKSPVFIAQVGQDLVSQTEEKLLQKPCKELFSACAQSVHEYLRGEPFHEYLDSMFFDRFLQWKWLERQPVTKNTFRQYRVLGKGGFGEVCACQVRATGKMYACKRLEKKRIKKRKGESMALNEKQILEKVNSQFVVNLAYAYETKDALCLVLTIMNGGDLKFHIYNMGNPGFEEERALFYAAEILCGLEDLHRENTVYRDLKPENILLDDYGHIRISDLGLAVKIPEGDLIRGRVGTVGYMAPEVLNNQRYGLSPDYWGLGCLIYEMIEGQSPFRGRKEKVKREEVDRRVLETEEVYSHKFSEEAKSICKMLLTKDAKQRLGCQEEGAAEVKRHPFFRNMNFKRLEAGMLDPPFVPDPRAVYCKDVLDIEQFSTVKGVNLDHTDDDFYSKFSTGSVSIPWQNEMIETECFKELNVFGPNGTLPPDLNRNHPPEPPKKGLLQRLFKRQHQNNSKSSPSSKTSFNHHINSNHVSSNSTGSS"}, "[28]": {"molecular_target": "CAMK2B (human) (UniProt Q13554)"}, "[29]": {"molecular_target": "TAOK2 (human) (UniProt Q9UL54)", "sequence (Q9UL54 whole entry, looked up)": "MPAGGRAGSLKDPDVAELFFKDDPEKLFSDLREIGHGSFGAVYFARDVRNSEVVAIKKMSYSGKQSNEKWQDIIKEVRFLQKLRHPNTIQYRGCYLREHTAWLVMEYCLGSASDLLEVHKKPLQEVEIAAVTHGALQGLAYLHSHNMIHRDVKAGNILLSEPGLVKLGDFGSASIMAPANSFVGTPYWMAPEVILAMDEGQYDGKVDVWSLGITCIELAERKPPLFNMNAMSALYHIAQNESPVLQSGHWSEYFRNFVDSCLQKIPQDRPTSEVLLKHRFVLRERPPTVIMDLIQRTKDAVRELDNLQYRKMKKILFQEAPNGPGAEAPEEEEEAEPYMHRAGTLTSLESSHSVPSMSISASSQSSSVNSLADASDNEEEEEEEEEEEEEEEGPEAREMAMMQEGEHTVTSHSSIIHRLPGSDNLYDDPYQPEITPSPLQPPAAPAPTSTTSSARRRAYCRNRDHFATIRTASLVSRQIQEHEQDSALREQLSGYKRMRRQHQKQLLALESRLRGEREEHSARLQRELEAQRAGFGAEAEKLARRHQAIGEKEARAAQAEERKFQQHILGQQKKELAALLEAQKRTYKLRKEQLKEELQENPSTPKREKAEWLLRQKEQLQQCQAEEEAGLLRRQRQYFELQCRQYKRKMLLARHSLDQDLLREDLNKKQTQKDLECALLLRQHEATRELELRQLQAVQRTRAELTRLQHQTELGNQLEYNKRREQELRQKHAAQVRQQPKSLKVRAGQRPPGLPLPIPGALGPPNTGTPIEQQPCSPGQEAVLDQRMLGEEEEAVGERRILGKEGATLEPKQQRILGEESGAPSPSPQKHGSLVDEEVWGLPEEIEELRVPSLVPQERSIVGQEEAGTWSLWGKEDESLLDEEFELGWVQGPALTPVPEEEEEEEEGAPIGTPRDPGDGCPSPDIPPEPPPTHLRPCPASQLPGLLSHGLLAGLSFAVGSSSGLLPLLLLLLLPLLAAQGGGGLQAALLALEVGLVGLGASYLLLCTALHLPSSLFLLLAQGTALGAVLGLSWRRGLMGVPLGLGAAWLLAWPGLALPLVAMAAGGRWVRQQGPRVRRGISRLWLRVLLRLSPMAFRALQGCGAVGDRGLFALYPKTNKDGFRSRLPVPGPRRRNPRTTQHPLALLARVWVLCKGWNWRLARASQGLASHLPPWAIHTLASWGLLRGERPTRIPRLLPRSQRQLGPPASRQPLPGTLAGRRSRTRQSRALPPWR"}, "[30]": {"molecular_target": "DDR2 (human) (UniProt Q16832)"}, "[31]": {"molecular_target": "NLK (human) (UniProt Q9UBE8)", "sequence (Q9UBE8 whole entry, looked up)": "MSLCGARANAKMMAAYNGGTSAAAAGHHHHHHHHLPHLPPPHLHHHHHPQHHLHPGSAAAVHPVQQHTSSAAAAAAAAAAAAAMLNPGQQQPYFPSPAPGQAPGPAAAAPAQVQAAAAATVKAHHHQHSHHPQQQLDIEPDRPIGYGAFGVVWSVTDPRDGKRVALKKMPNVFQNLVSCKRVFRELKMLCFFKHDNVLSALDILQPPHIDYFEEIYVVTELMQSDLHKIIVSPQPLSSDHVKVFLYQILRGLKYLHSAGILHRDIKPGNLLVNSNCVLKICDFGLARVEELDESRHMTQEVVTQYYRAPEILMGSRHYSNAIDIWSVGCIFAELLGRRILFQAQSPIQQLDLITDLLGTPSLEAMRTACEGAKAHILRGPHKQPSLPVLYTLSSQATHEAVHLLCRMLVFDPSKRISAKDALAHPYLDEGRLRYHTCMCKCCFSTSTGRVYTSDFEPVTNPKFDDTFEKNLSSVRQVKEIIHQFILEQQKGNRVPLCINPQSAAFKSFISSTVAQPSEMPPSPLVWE"}, "[32]": {"molecular_target": "EPHA8 (human) (UniProt P29322)"}, "[33]": {"molecular_target": "PDGFRA (human) (UniProt P16234)"}, "[34]": {"molecular_target": "ROS1 (human) (UniProt P08922)"}, "[35]": {"molecular_target": "CDC42BPA (human) (UniProt Q5VT25)"}, "[36]": {"molecular_target": "SIK2 (human) (UniProt Q9H0K1)"}, "[37]": {"molecular_target": "BLK (human) (UniProt P51451)"}, "[38]": {"molecular_target": "BMX (human) (UniProt P51813)"}, "[39]": {"molecular_target": "KIT (human) (UniProt P10721)"}, "[40]": {"molecular_target": "SRPK2 (human) (UniProt P78362)", "sequence (P78362 whole entry, looked up)": "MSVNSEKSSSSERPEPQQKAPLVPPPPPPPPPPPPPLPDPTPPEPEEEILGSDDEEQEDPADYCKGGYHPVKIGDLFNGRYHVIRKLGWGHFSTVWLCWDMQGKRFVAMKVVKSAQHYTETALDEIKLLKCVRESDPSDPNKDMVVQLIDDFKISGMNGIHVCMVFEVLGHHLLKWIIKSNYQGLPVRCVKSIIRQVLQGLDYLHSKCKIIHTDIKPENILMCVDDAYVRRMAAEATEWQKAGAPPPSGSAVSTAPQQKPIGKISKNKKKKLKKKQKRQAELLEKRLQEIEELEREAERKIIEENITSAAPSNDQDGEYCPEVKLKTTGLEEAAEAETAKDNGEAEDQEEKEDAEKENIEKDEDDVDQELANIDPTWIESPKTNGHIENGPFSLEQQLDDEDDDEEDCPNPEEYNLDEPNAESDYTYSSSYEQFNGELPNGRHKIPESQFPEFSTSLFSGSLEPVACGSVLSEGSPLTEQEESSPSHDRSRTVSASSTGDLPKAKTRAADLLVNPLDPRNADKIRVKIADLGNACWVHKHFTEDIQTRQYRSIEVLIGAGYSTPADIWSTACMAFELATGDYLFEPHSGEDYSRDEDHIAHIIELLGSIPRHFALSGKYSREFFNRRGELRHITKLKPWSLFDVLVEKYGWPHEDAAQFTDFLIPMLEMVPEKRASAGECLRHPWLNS"}, "[41]": {"molecular_target": "MAP3K5 (human) (UniProt Q99683)"}, "[42]": {"molecular_target": "GRK7 (human) (UniProt Q8WTQ7)"}},
  "note": "“And” between values parts separate entries of the source, which are not always exact repeats. Equal entries are not always repeated.",
  "data": [
    {"smiles": "Cc1ccc(NC(=O)c2ccc(CN3CCN(C)CC3)cc2)cc1Nc1nc(-c2cccnc2)cs1", "values": [
      {"measurement": "residual activity", "setting": "[1]", "value": 110, "unit": "%"},
      {"measurement": "residual activity", "setting": "[2]", "value": 92.9, "unit": "%"},
      {"measurement": "residual activity", "setting": "[3]", "value": 95.4, "unit": "%"},
      {"measurement": "residual activity", "setting": "[4]", "value": 93.2, "unit": "%"},
      {"measurement": "residual activity", "setting": "[5]", "value": 95.6, "unit": "%"},
      {"measurement": "residual activity", "setting": "[6]", "value": 98.6, "unit": "%"},
      {"measurement": "residual activity", "setting": "[7]", "value": 97.7, "unit": "%"},
      {"measurement": "residual activity", "setting": "[8]", "value": 86.8, "unit": "%"},
      {"measurement": "residual activity", "setting": "[9]", "value": 104, "unit": "%"},
      {"measurement": "residual activity", "setting": "[10]", "value": 86, "unit": "%"},
      {"measurement": "residual activity", "setting": "[11]", "value": 116, "unit": "%"},
      {"measurement": "residual activity", "setting": "[12]", "value": 106, "unit": "%"},
      {"measurement": "residual activity", "setting": "[13]", "value": 108, "unit": "%"},
      {"measurement": "residual activity", "setting": "[14]", "value": 97, "unit": "%"},
      {"measurement": "residual activity", "setting": "[15]", "value": 90.2, "unit": "%"},
      {"measurement": "residual activity", "setting": "[16]", "value": 99.5, "unit": "%"},
      {"measurement": "residual activity", "setting": "[17]", "value": 97.9, "unit": "%"},
      {"measurement": "residual activity", "setting": "[18]", "value": 7.63, "unit": "%"},
      {"measurement": "residual activity", "setting": "[19]", "value": 102, "unit": "%"},
      {"measurement": "residual activity", "setting": "[20]", "value": "16.2% and 18.7%"},
      {"measurement": "residual activity", "setting": "[21]", "value": 95.8, "unit": "%"},
      {"measurement": "residual activity", "setting": "[22]", "value": 104, "unit": "%"},
      {"measurement": "residual activity", "setting": "[23]", "value": 91.2, "unit": "%"},
      {"measurement": "residual activity", "setting": "[24]", "value": 97.8, "unit": "%"},
      {"measurement": "residual activity", "setting": "[25]", "value": 102, "unit": "%"},
      {"measurement": "residual activity", "setting": "[26]", "value": 99.4, "unit": "%"},
      {"measurement": "residual activity", "setting": "[27]", "value": 106, "unit": "%"},
      {"measurement": "residual activity", "setting": "[28]", "value": 100, "unit": "%"},
      {"measurement": "residual activity", "setting": "[29]", "value": 91.6, "unit": "%"},
      {"measurement": "residual activity", "setting": "[30]", "value": 36.4, "unit": "%"},
      {"measurement": "residual activity", "setting": "[31]", "value": 106, "unit": "%"},
      {"measurement": "residual activity", "setting": "[32]", "value": 93.1, "unit": "%"},
      {"measurement": "residual activity", "setting": "[33]", "value": 1.64, "unit": "%"},
      {"measurement": "residual activity", "setting": "[34]", "value": 91.5, "unit": "%"},
      {"measurement": "residual activity", "setting": "[35]", "value": 104, "unit": "%"},
      {"measurement": "residual activity", "setting": "[36]", "value": 99.7, "unit": "%"},
      {"measurement": "residual activity", "setting": "[37]", "value": 57.5, "unit": "%"},
      {"measurement": "residual activity", "setting": "[38]", "value": 104, "unit": "%"},
      {"measurement": "residual activity", "setting": "[39]", "value": 41.3, "unit": "%"},
      {"measurement": "residual activity", "setting": "[40]", "value": 101, "unit": "%"},
      {"measurement": "residual activity", "setting": "[41]", "value": 95, "unit": "%"},
      {"measurement": "residual activity", "setting": "[42]", "value": 104, "unit": "%"}
    ]}
  ]
}
